From patent US6949574B2 (Bristol-Myers Squibb Company, priority 2002, dated 2005) come the findings set out here.

Read-outs that look alike come from different tables or passages of the source.

One data set deals with T1, human FAAH (Homo sapiens, UniProt O00519).
T1 construct: expressed in transfected cells; host or cells: H4 cells (H4-FAAH, Geneticin-selected); crude membrane homogenates
T1 sequence (O00519 1-579): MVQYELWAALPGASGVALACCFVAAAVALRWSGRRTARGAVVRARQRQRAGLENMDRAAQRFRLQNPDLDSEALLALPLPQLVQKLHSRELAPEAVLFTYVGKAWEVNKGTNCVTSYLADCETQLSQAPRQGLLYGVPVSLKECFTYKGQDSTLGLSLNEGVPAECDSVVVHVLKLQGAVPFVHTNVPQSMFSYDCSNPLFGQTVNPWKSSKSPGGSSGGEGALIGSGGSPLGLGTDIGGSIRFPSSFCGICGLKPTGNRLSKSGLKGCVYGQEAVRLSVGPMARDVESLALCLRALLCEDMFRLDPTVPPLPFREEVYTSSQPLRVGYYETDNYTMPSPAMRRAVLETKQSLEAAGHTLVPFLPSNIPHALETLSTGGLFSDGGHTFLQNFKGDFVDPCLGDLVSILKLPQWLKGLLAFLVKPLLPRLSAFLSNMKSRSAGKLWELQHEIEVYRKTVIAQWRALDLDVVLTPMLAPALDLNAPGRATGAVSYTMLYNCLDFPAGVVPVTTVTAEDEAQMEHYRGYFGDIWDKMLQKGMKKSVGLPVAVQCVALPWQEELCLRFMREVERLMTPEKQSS
As to the kind of experiment: FAAH activity in membrane homogenates of H4-FAAH cells, [3H]-anandamide hydrolysis. Format: biochemical. Particulars: H4-FAAH cell membranes, 10 μM anandamide, room temperature, one hour; read-out: IC50. In short, it runs like this: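 Membranes (240 ng protein) from H4 cells expressing transfected human FAAH, incubated 1 h at room temperature in 125 mM Tris-Cl, pH 9.0, with 1.67 nM [3H]-anandamide plus 10 μM anandamide. Aqueous [3H]-ethanolamine counted after methanol/dichloroethane extraction; background set with 10 μM ATFMK. IC50 from four-parameter logistic fit.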

Data set [1] concerns acute thermal pain behavior. Format: in vivo, rat. The source says: FIG. 2 illustrates results from a rat Hargreaves test used for measuring acute thermal pain.
Data are mean+/−s.e.m. (n=8 per group). **p<0.01 Dunnett's Test, compared to vehicle control.

For data set [2], the system named is carrageenan-induced edema. Kind of data set: Paw edema model (inflammation-induced edema), plethysmometry. The data set is classed as in vivo, rat. From the text:
PAW EDEMA MODEL (Inflammation-induced Edema) The effects of Example 5 on carrageenan-induced edema were examined in a quantitative manner (plethysmometry).

For data set [3], the system named is thermal hyperalgesia induced by paw carrageenan. Kind of data set: Carrageenan-induced thermal hyperalgesia (chronic inflammatory pain). Format: in vivo, rat. The source says:
FIG. 1 illustrates results from a rat carrageen-induced thermal hypergesia model used for measuring chronic inflammatory pain.
The following in vivo pain models below utilized Example 5. […] Paw carrageenan injection (⋄, 0:45 hr, Carr) produced strong thermal hyperalgesia as evidenced by the short escape latencies seen in vehicle treated rats (⋄, 2:15 hr, Carr) as compared to the long baseline latencies (0:00 hr). […] Data are mean+/−s.e.m. (n=8 per group). *p<0.05, **p<0.01 Tukey's HSD, compared to vehicle.

Take `CCCCOc1ccc(NC(=O)O/N=C/c2ccc(F)cc2)cc1` [Example 5, 4-Fluorobenzaldehyde, O-[[(4-butoxyphenyl)amino]carbonyl]oxime]: on human FAAH, the IC50 is less than 10 nM. The side effects result in data set [1] (10 mg/kg i.v.) is “No significant side effects were observed”; in data set [1] (30 mg/kg i.v.) it was “strong sedation, reduced activity and splayed hindlimbs”; in data set [3] (40 mg/kg, i.p.), “No side effects were observed”. In addition, the “acute thermal pain behavior” value in data set [1] (10 & 30 mg/kg, i.v. hand infusion, 15 min post injection, did not persist beyond this time) was “significant reversal of acute thermal pain behavior”. The “inhibition of swelling (combined total paw volume)” value in data set [2] (20 mg/kg ip) is recorded as “no efficacy”; in data set [2] (40 mg/kg ip at -30 min and +2 hr relative to carrageenan, measured 3 hours post-injection), 26%. For the same compound, the “thermal escape latencies of drug treated animals” value in data set [3] (40 mg/kg, i.p., at 2:15 hr) is reported as “comparable to baseline”. Moreover, in data set [3] (40 mg/kg, i.p., pretreatment before paw carrageenan), the “development of thermal hyperalgesia” value is given as “suppressed the development of thermal hyperalgesia”. Further, the “thermal escape responses after second injection” value in data set [3] (second injection 40 mg/kg i.p. at 3:00 hr, 3:00-4:00 hr) is recorded as “maintained thermal escape responses at basal levels for another hour”.

Compound `O=C(Nc1ccccc1Oc1ccccc1)O/N=C/c1ccccc1` [Example 90, Benzaldehyde, O-[[(2-phenoxyphenyl)amino]carbonyl]oxime] came in with a melting point of 141.5 to 142 °C. Also, the IC50 on human FAAH is 10 to 100 nM.

`CCCCOc1ccc(C(CC)NC(=O)Oc2ccc3ncccc3c2)cc1` (centres unmarked) [Example 125, [1-(4-Butoxy-phenyl)-propyl]-carbamic acid quinolin-6-yl ester] gave a melting point of 115 to 118 °C. Further, the IC50 on human FAAH was in the range of 10 to 100 nM.

Turning to `C[C@@H]1C[C@H]2[C@@H]3CCC4=CC(=O)C=C[C@]4(C)[C@@]3(F)[C@@H](O)C[C@]2(C)[C@@]1(O)C(=O)CO` [dexamethasone, reference compound], the “inhibition of swelling (combined total paw volume)” value in data set [2] (1 mg/kg ip) is 70%.

Compound `O=C(Nc1ccccc1Oc1ccccc1)O/N=C/c1ccc(F)cc1` [Example 89, 4-Fluorobenzaldehyde, O-[[(2-phenoxyphenyl)amino]carbonyl]oxime] showed a melting point of 141.5 to 142 °C. Also, the IC50 on human FAAH was more than 500 nM.

For the compound `CCCCOc1ccc(NC(=O)ON=C(C)C)cc1OC` [Example 18, 2-Propanone, O-[[(4-butoxy-3-methoxyphenyl)amino]carbonyl]oxime], the IC50 at human FAAH is more than 500 nM.

For the compound `CCCCOc1ccc(NC(=O)O/N=C/c2cccnc2)cc1` [Example 44, 3-Pyridinecarboxaldehyde, O-[[(4-butoxyphenyl)amino]carbonyl]oxime], the IC50 on human FAAH fell in the range of 10 to 100 nM.

Take `CCCCCCCOc1ccc(NC(=O)O/N=C/c2cccnc2)cc1` [Example 1, 3-Pyridinecarboxaldehyde, O-[[[4-(Heptyloxy)phenyl]amino]carbonyl]oxime]: at human FAAH, the IC50 was less than 10 nM.

For `CCc1ccc(-c2ccc(NC(=O)O/N=C/c3ccc(F)cc3)cc2)cc1` [Example 75, 4-Fluorobenzaldehyde, O-[[(4′-ethyl-[1,1′-biphenyl]-4-yl)amino]carbonyl]oxime], the IC50 on human FAAH was less than 10 nM.

With `CCCCOc1ccc(C(CC)NC(=O)Oc2ccc(F)cc2)cc1` (centres unmarked) [Example 132, [1-(4-Butoxy-phenyl)-propyl]-carbamic acid 4-fluoro-phenyl ester], the IC50 at human FAAH fell in the range of 10 to 100 nM.

With `O=C(Nc1ccc(OCc2ccccc2)cc1)O/N=C/c1ccccc1` [Example 84, Benzaldehyde, O-[[[4-(phenylmethoxy)phenyl]amino]carbonyl]oxime], the IC50 on human FAAH is less than 10 nM.

`CCCCOc1ccc(C(CC)NC(=O)Oc2ccc(F)cc2F)cc1` (centres unmarked) [Example 131, [1-(4-Butoxy-phenyl)-propyl]-carbamic acid 2,4-difluoro-phenyl ester]: the IC50 at human FAAH lay in the range of 10 to 100 nM.

Turning to `CCCCCCCCOc1ccc(NC(=O)Oc2ccccc2)cc1` [Example 98, 4-Octyloxyphenylcarbamic acid, phenyl ester], the IC50 on human FAAH was less than 10 nM.

`CCCCCCCCOc1ccc(NC(=O)ON=C(C)C)cc1` [Example 29, 2-Propanone, O-[[(4-octyloxyphenyl)amino]carbonyl]oxime]: the IC50 at human FAAH is less than 10 nM.

In the case of `CCCCOc1ccc(NC(=O)O/N=C/c2ccc([N+](=O)[O-])cc2)cc1` [Example 59, 4-Nitrobenzaldehyde, O-[[(4-butoxyphenyl)amino]carbonyl]oxime], on human FAAH, the IC50 is less than 10 nM.

Take `CCCCCCCCC(=O)Nc1ccc(NC(=O)O/N=C/c2cccc(C(F)(F)F)c2)cc1` [Example 138, 3-Trifluoromethylbenzaldehyde, O-[[(4-Nonanoylamino-phenyl)amino]carbonyl]oxime]: the IC50 at human FAAH was 10 to 100 nM.

As for `CCCCOc1ccc(CNC(=O)ON=C(C)C)cc1` [Example 61, 2-Propanone, O-[[(4-butoxyphenylmethyl)amino]carbonyl]oxime], the IC50 at human FAAH was more than 500 nM.
